The results in this text go back to US12454529B2, “Piperazine cyclic ureas” (SIRONAX LTD., priority 2020, dated 2025).

Read-outs that look alike come from different tables or passages of the source.

This assay concerns HT-29 cells. The assay can be described thus: HT-29 cell necrosis/necroptosis inhibition (TNF-α + SMAC mimetic + zVAD-FMK; CellTiter-Glo cell viability). It is filed as cell-based. As to conditions: Homo sapiens, HT-29 cells, TNF-α 10 ng/ml + SMAC mimetic 6 μM + zVAD-FMK 10 μM, 20 hours, geometric mean, 10 points in duplicate. The method, boiled down: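 Necroptosis was driven by TNF-α 10 ng/ml plus SMAC mimetic 6 μM and zVAD-FMK 10 μM in serum-free medium, with compounds as a 10-point threefold titration. After 20 h at 37 °C, ATP-based luminescence was read; EC50 values are geometric means of duplicate curves.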

Setting [1] is: read-out: EC50 (Cell activity; Necrosis/Necroptosis Inhibitory Activity, Compounds 143-323).
[2] abbreviates: read-out: EC50 (Cell activity; Necrosis/Necroptosis Inhibitory Activity, Compounds 1-142).

As for `Cc1cnn(C)c1-c1ncc(F)c(N2CCN(C(=O)N3N=CCC3c3ncccc3Cl)CC2)n1` (centres unmarked) [Compound 261, (5-(3-chloropyridin-2-yl)-4,5-dihydro-1H-pyrazol-1-yl)(4-(2-(1,4-dimethyl-1H-pyrazol-5-yl)-5-fluoropyrimidin-4-yl)piperazin-1-yl)methanone], under setting [1], the half-maximal effective concentration (EC50) was 0.1 to 100 nM.
Same read-out and setting: next, `Cc1nc(CO)nn1-c1nc(N2CCN(C(=O)N3N=CC[C@H]3c3cc(F)cc(F)c3)CC2)ncc1F` [Compound 251, (S)-(5-(3,5-difluorophenyl)-4,5-dihydro-1H-pyrazol-1-yl)(4-(5-fluoro-4-(3-(hydroxymethyl)-5-methyl-1H-1,2,4-triazol-1-yl)pyrimidin-2-yl)piperazinyl)methanone]: 0.1 to 100 nM.
On to `Cc1nc(C)n(-c2nc(N3CCN(C(=O)N4N=CCC4c4cc(Br)cc(F)c4F)CC3)ncc2F)n1` (centres unmarked) [Compound 237, (5-(5-bromo-2,3-difluorophenyl)-4,5-dihydro-1H-pyrazol-1-yl)(4-(4-(3,5-dimethyl-1H-1,2,4-triazol-1-yl)-5-fluoropyrimidin-2-yl)piperazin-1-yl)methanone], for which the EC50 under setting [1] lay in the range of 0.1 to 100 nM.
In the case of `Cc1nn(CC2CCOC2)c(C)c1-c1nc(N2CCN(C(=O)N3N=CC[C@H]3c3cc(F)cc(C#N)c3)CC2)ncc1F` (stereo partly drawn) [Compound 132, 3-((5S)-1-(4-(4-(3,5-dimethyl-1-((tetrahydrofuran-3-yl)methyl)-1H-pyrazol-4-yl)-5-fluoropyrimidin-2-yl)piperazine-1-carbonyl)-4,5-dihydro-1H-pyrazol-5-yl)-5-fluorobenzonitrile], the EC50 under setting [2] is 0.1 to 100 nM.
`Cn1nc(CF)nc1-c1ccnc(N2CCN(C(=O)N3N=CC[C@H]3c3cc(F)cc(C#N)c3)CC2)n1` [Compound 169, (S)-3-fluoro-5-(1-(4-(4-(3-(fluoromethyl)-1-methyl-1H-1,2,4-triazol-5-yl)pyrimidin-2-yl)piperazine-1-carbonyl)-4,5-dihydro-1H-pyrazol-5-yl)benzonitrile]: the EC50 under setting [1] was 0.1 to 100 nM.
For the molecule `Cc1cc(-c2nc(N3CCN(C(=O)N4N=CC[C@H]4c4cc(F)cc(C#N)c4)CC3)ncc2F)n(C)n1` [Compound 84, (S)-3-(1-(4-(4-(1,3-dimethyl-1H-pyrazol-5-yl)-5-fluoropyrimidin-2-yl)piperazine-1-carbonyl)-4,5-dihydro-1H-pyrazol-5-yl)-5-fluorobenzonitrile], under setting [2], the half-maximal effective concentration (EC50) is 0.1 to 100 nM.
In the case of `Cc1cnn(C)c1-c1ccc(F)c(N2CCN(C(=O)N3N=CCC3c3ccccn3)CC2)n1` (centres unmarked) [Compound 297, (4-(6-(1,4-dimethyl-1H-pyrazol-5-yl)-3-fluoropyridin-2-yl)piperazin-1-yl)(5-(pyridin-2-yl)-4,5-dihydro-1H-pyrazol-1-yl)methanone], the EC50 under setting [1] fell in the range of 0.1 to 100 nM.
For `Cc1nc(C2CC=NN2C(=O)N2CCN(c3nc(-c4c(C)cnn4C)ncc3F)CC2)cs1` (centres unmarked) [Compound 158, (4-(2-(1,4-dimethyl-1H-pyrazol-5-yl)-5-fluoropyrimidin-4-yl)piperazinyl)(5-(2-methylthiazol-4-yl)-4,5-dihydro-1H-pyrazol-1-yl)methanone], the EC50 under setting [1] was 0.1 to 100 nM.
As for `Cc1nn(-c2cc(N3CCN(C(=O)N4N=CC[C@H]4c4cc(F)cc(F)c4)CC3)ncn2)c(C)c1C#N` [Compound 280, (S)-1-(6-(4-(5-(3,5-difluorophenyl)-4,5-dihydro-1H-pyrazole-1-carbonyl)piperazin-1-yl)pyrimidin-4-yl)-3,5-dimethyl-1H-pyrazole-4-carbonitrile], the EC50 under setting [1] is 0.1 to 100 nM.
`Cc1nc(CO)nn1-c1nc(N2CCN(C(=O)N3N=CC[C@H]3c3cc(F)cc(C#N)c3)CC2)ncc1F` [Compound 144, (S)-3-fluoro-5-(1-(4-(5-fluoro-4-(3-(hydroxymethyl)-5-methyl-1H-1,2,4-triazol-1-yl)pyrimidin-2-yl)piperazine-1-carbonyl)-4,5-dihydro-1H-pyrazol-5-yl)benzonitrile]: the EC50 under setting [1] is 0.1 to 100 nM.
`NC(=O)Cn1ccc(-c2nc(N3CCN(C(=O)N4N=CC[C@H]4c4ccccc4)CC3)ncc2F)n1` [Compound 77]: the EC50 under setting [2] was 0.1 to 100 nM.
